52 compounds from patent publication US20260116868A1 (Arcus Biosciences, Inc., priority 2023, published 2026) can be followed below.

A value given as a limit tells only on which side of the number the result lay.

The target in this assay is T1, Cbl-b (Homo sapiens, UniProt Q13191).
T1 construct: biotin (biotinylated protein)
Nature of the assay: Cbl-b probe displacement HTRF binding assay. Conditions: 0.4 nM Cbl-b, 150 nM BODIPY probe. Summed up:
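Binding IC50 from four-parameter fit of HTRF signal loss, normalised to DMSO (0%) and no-protein (100%) wells. Biotinylated Cbl-b 0.4 nM was preincubated 60 min with compound (20-point 1:2 dilution) before 15 min with 150 nM BODIPY probe; Tb-streptavidin detection.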
On the technique in general: TR-FRET usually uses a lanthanide donor and a delayed reading to cut background.

T1 sequence (Q13191 whole entry, species assumed): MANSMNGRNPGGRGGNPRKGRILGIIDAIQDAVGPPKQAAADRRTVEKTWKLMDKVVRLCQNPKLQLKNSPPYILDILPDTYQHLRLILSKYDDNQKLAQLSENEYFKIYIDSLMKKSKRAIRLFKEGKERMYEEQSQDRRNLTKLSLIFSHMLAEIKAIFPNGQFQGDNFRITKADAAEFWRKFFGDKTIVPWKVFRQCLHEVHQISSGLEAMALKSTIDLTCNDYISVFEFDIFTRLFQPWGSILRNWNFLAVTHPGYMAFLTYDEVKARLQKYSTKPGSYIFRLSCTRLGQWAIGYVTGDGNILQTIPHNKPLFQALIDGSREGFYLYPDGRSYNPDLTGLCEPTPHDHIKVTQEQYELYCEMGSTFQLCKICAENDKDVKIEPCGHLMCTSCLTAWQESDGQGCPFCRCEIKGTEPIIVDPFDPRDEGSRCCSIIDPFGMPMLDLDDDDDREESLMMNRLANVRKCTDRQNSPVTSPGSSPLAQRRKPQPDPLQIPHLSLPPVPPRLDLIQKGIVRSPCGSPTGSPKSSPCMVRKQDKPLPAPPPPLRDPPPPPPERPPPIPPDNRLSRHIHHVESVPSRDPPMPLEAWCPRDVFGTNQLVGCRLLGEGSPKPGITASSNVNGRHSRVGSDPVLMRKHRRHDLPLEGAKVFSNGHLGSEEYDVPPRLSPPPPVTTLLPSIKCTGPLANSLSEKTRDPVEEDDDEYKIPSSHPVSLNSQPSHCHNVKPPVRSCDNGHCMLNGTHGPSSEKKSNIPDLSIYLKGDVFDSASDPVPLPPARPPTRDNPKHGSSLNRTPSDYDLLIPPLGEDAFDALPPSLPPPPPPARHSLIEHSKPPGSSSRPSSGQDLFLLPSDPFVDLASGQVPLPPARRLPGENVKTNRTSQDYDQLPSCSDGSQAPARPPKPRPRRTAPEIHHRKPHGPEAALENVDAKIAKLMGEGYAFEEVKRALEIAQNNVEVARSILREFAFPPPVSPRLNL

For the compound `CCOc1cc(-c2c(F)cc(Cl)cc2C(=O)N2CC(F)(F)C2)cc(NC(=O)c2cc(CNC[C@H](C)OC)cn(C3CC3)c2=O)n1` [Example 199], the IC50 is under 0.1 µM.
Under `CC(C)Nc1cc(-c2c(F)cc(Cl)cc2C(=O)N2CC(F)(F)C2)cc(NC(=O)c2cc(CN[C@@H](C)C3CCC3)cn(C3CC3)c2=O)n1` [Example 200] stands under 0.1 µM.
Under `CC(C)CNCc1cc(C(=O)Nc2cc(-c3c(F)cc(Cl)cc3C(=O)N3CC(F)(F)C3)cc(NC(C)C)n2)c(=O)n(C2CC2)c1` [Example 201] stands under 0.1 µM; under `CCOc1cc(-c2ccc(C#N)cc2C(=O)N2CC(F)(F)C2)cc(NC(=O)c2cc(CNCC(C)C)cn(C3CC3)c2=O)n1` [Example 202], under 0.1 µM; under `CCOc1cc(-c2c(F)cc(Cl)cc2C(=O)N2CC(F)(F)C2)cc(NC(=O)c2cc(CN[C@@H](C)[C@H](C)OC)cn(C3CC3)c2=O)n1` [Example 203], under 0.1 µM.
`CC(C)Nc1cc(-c2c(F)cc(Cl)cc2C(=O)N2CC(F)(F)C2)cc(NC(=O)c2cc(CN[C@@H](C)C3CC3)cn(C3CC3)c2=O)n1` [Example 204]: the IC50 is under 0.1 µM.
Under `CO[C@@H](C)[C@H](C)NCc1cc(C(=O)Nc2cc(-c3ccc(OC(F)F)cc3C(=O)N3CC(F)(F)C3)cc(OC(C)C)n2)c(=O)n(C2CC2)c1` [Example 205] stands under 0.1 µM; under `CCOc1cc(-c2ccc(C#N)cc2C(=O)N2CC(F)(F)C2)cc(NC(=O)c2cc(CNC[C@H](C)OC)cn(C3CC3)c2=O)n1` [Example 206], under 0.1 µM.
The same measure for `CCOc1cc(-c2c(F)cc(Cl)cc2C(=O)N2CC(F)(F)C2)cc(NC(=O)c2cc(CN[C@@H](C)C3CCC3)cn(C3CC3)c2=O)n1` [Example 207]: under 0.1 µM; for `CC(C)Nc1cc(-c2c(F)cc(Cl)cc2C(=O)N2CC(F)(F)C2)cc(NC(=O)c2cc(CNC[C@@H]3CCCO3)cn(C3CC3)c2=O)n1` [Example 208]: under 0.1 µM.
Under `CC(C)Oc1cc(-c2ccc(OC(F)F)cc2C(=O)N2CC(F)(F)C2)cc(NC(=O)c2cc(CNC[C@@H]3CCCO3)cn(C3CC3)c2=O)n1` [Example 209] stands under 0.1 µM; under `CCOc1cc(-c2c(F)cc(Cl)cc2C(=O)N2CC(F)(F)C2)cc(NC(=O)c2cc(CNC[C@@H]3CCCO3)cn(C3CC3)c2=O)n1` [Example 210], under 0.1 µM.
`CC(C)CNCc1cc(C(=O)Nc2cc(-c3ccc(C#N)cc3C(=O)N3CC(F)(F)C3)cc(OC(C)C)n2)c(=O)n(C)c1` [Example 211] had an IC50 of under 0.1 µM.
Under `CCOc1cc(-c2ccc(C#N)cc2C(=O)N2CC(F)(F)C2)cc(NC(=O)c2cc(CNC[C@@H]3CCCO3)cn(C3CC3)c2=O)n1` [Example 212] stands under 0.1 µM.
For `CCOc1cc(-c2c(F)cc(Cl)cc2C(=O)N2CC(F)(F)C2)cc(NC(=O)c2cc(CNCC(C)C)cn(C3CC3)c2=O)n1` [Example 213], the IC50 is under 0.1 µM.
As for `CC(C)Oc1cc(-c2ccc(C#N)cc2C(=O)N2CC(F)(F)C2)cc(NC(=O)c2cc(CN[C@@H](C)C(C)C)cn(C)c2=O)n1` [Example 214], the IC50 is under 0.1 µM.
The same measure for `CO[C@@H](C)CNCc1cc(C(=O)Nc2cc(-c3cc(F)c(Cl)cc3C(=O)N3CC(F)(F)C3)cc(C3CC3)n2)c(=O)n(C2CC2)c1` [Example 215]: under 0.1 µM; for `C[C@H](NCc1cc(C(=O)Nc2cc(-c3cc(F)c(Cl)cc3C(=O)N3CC(F)(F)C3)cc(C3CC3)n2)c(=O)n(C2CC2)c1)C1CCC1` [Example 216]: under 0.1 µM; for `CO[C@@H](C)CNCc1cc(C(=O)Nc2cc(-c3ccc(Cl)cc3C(=O)N3CC(F)(F)C3)cc(NC(C)C)n2)c(=O)n(C2CC2)c1` [Example 217]: under 0.1 µM.
Consider `C[C@H](NCc1cc(C(=O)Nc2cc(-c3c(F)cc(C#N)cc3C(=O)N3CC(F)(F)C3)cc(C3CC3)n2)c(=O)n(C2CC2)c1)C1CCC1` [Example 218], for which the IC50 is under 0.1 µM.
Under `CC(C)Nc1cc(-c2ccc(Cl)cc2C(=O)N2CC(F)(F)C2)cc(NC(=O)c2cc(CN[C@@H](C)C3CC3)cn(C3CC3)c2=O)n1` [Example 219] stands under 0.1 µM; under `CC(C)Nc1cc(-c2ccc(Cl)cc2C(=O)N2CC(F)(F)C2)cc(NC(=O)c2cc(CN[C@@H](C)C3CCC3)cn(C3CC3)c2=O)n1` [Example 221], under 0.1 µM.
For `CO[C@@H](C)[C@H](C)NCc1cc(C(=O)Nc2cc(-c3c(F)cc(C#N)cc3C(=O)N3CC(F)(F)C3)cc(OC(C)C)n2)c(=O)n(C2CC2)c1` [Example 222], the IC50 was under 0.1 µM.
Under `CC(C)Nc1cc(-c2ccc(Cl)cc2C(=O)N2CC(F)(F)C2)cc(NC(=O)c2cc(CNC[C@@H]3CCCO3)cn(C3CC3)c2=O)n1` [Example 223] stands under 0.1 µM; under `CO[C@@H](C)CNCc1cc(C(=O)Nc2cc(-c3c(F)cc(C#N)cc3C(=O)N3CC(F)(F)C3)cc(C3CC3)n2)c(=O)n(C2CC2)c1` [Example 224], under 0.1 µM.
Under `CCOc1cc(-c2ccc(Cl)cc2C(=O)N2CC(F)(F)C2)cc(NC(=O)c2cc(CNC[C@@H]3CCCO3)cn(C3CC3)c2=O)n1` [Example 225] stands under 0.1 µM; under `CO[C@@H](C)[C@H](C)NCc1cc(C(=O)Nc2cc(-c3c(F)cc(C#N)cc3C(=O)N3CC(F)(F)C3)cc(OC(C)C)n2)c(=O)n(C)c1` [Example 226], under 0.1 µM.
In turn, `CC(C)Oc1cc(-c2c(F)cc(C#N)cc2C(=O)N2CC(F)(F)C2)cc(NC(=O)c2cc(CN[C@@H](C)C3CCC3)cn(C)c2=O)n1` [Example 227] showed an IC50 of under 0.1 µM.
Under `CO[C@@H](C)CNCc1cc(C(=O)Nc2cc(-c3c(F)cc(C#N)cc3C(=O)N3CC(F)(F)C3)cc(C3CC3)n2)c(=O)n(C)c1` [Example 228] stands under 0.1 µM.
In turn, `CO[C@@H](C)[C@H](C)NCc1cc(C(=O)Nc2cc(-c3c(F)cc(C#N)cc3C(=O)N3CC(F)(F)C3)cc(C3CC3)n2)c(=O)n(C)c1` [Example 229] had an IC50 of under 0.1 µM.
For the compound `CC(C)CNCc1cc(C(=O)Nc2cc(-c3c(F)cc(C#N)cc3C(=O)N3CC(F)(F)C3)cc(C3CC3)n2)c(=O)n(C2CC2)c1` [Example 230], the IC50 is under 0.1 µM.
Under `N#Cc1cc(F)c(-c2cc(NC(=O)c3cc(CNC[C@@H]4CCCO4)cn(C4CC4)c3=O)nc(C3CC3)c2)c(C(=O)N2CC(F)(F)C2)c1` [Example 231] stands under 0.1 µM; under `C[C@H](NCc1cc(C(=O)Nc2cc(-c3c(F)cc(C#N)cc3C(=O)N3CC(F)(F)C3)cc(C3CC3)n2)c(=O)n(C2CC2)c1)C1CC1` [Example 232], under 0.1 µM; under `CC(C)Oc1cc(-c2c(F)cc(C#N)cc2C(=O)N2CC(F)(F)C2)cc(NC(=O)c2cc(CN[C@@H](C)C3CC3)cn(C)c2=O)n1` [Example 233], under 0.1 µM.
Turning to `CC(C)CNCc1cc(C(=O)Nc2cc(-c3c(F)cc(C#N)cc3C(=O)N3CC(F)(F)C3)cc(OC(C)C)n2)c(=O)n(C)c1` [Example 234], the IC50 is under 0.1 µM.
The same measure for `CO[C@@H](C)CNCc1cc(C(=O)Nc2cc(-c3c(F)cc(C#N)cc3C(=O)N3CC(F)(F)C3)cc(OC(C)C)n2)c(=O)n(C)c1` [Example 235]: under 0.1 µM; for `C[C@H](NCc1cc(C(=O)Nc2cc(-c3c(F)cc(C#N)cc3C(=O)N3CC(F)(F)C3)cc(C3CC3)n2)c(=O)n(C)c1)C1CC1` [Example 236]: under 0.1 µM; for `COCCNCc1cc(C(=O)Nc2cc(-c3c(F)cc(C#N)cc3C(=O)N3CC(F)(F)C3)cc(C3CC3)n2)c(=O)n(C2CC2)c1` [Example 237]: under 0.1 µM.
Under `CCOc1cc(-c2ccc(Cl)cc2C(=O)N2CC(F)(F)C2)cc(NC(=O)c2cc(CN[C@@H](C)COC)cn(C3CC3)c2=O)n1` [Example 238] stands under 0.1 µM; under `CC(C)Oc1cc(-c2c(F)cc(C#N)cc2C(=O)N2CC(F)(F)C2)cc(NC(=O)c2cc(CNC[C@@H]3CCCO3)cn(C)c2=O)n1` [Example 239], under 0.1 µM; under `CCOc1cc(-c2ccc(Cl)cc2C(=O)N2CC(F)(F)C2)cc(NC(=O)c2cc(CNCC3CC3)cn(C3CC3)c2=O)n1` [Example 240], under 0.1 µM.
`Cn1cc(CNC[C@@H]2CCCO2)cc(C(=O)Nc2cc(-c3c(F)cc(C#N)cc3C(=O)N3CC(F)(F)C3)cc(C3CC3)n2)c1=O` [Example 241] gave an IC50 of under 0.1 µM.
As for `CC(C)Oc1cc(-c2ccc(C#N)cc2C(=O)N2CC(F)(F)C2)cc(NC(=O)c2cc(CN[C@@H](C)C(C)(C)F)cn(C3CC3)c2=O)n1` [Example 242], the IC50 was under 0.1 µM.
The same measure for `C[C@@H](CC(F)(F)F)NCc1cc(C(=O)Nc2cc(-c3ccc(C#N)cc3C(=O)N3CC(F)(F)C3)cc(C3CC3)n2)c(=O)n(C2CC2)c1` [Example 243]: under 0.1 µM; for `CC(C)(F)CNCc1cc(C(=O)Nc2cc(-c3ccc(C#N)cc3C(=O)N3CC(F)(F)C3)cc(C3CC3)n2)c(=O)n(C2CC2)c1` [Example 244]: under 0.1 µM.
On to `CCNc1cc(-c2ccc(Cl)cc2C(=O)N2CC(F)C2)cc(NC(=O)c2cc(CNC[C@H](C)OC)cn(C3CC3)c2=O)n1` [Example 245], for which the IC50 was under 0.1 µM.
The same measure for `CC(C)Oc1cc(-c2ccc(C#N)cc2C(=O)N2CC(F)C2)cc(NC(=O)c2cc(CN[C@@H](C)C3CCC3)cn(C)c2=O)n1` [Example 246]: under 0.1 µM; for `CCOc1cc(-c2ccc(OC(F)F)cc2C(=O)N2CC(F)C2)cc(NC(=O)c2cc(CN[C@@H](C)C3CCC3)cn(C3CC3)c2=O)n1` [Example 247]: under 0.1 µM.
`CO[C@@H](C)CNCc1cc(C(=O)Nc2cc(-c3ccc(Cl)cc3C(=O)N3CC(F)C3)cc(C3CC3)n2)c(=O)n(C2CC2)c1` [Example 248] showed an IC50 of under 0.1 µM.
The same measure for `CC(C)Oc1cc(-c2ccc(OC(F)F)cc2C(=O)N2CC(F)C2)cc(NC(=O)c2cc(CN[C@@H](C)C3CCC3)cn(C3CC3)c2=O)n1` [Example 249]: under 0.1 µM; for `CC(C)Oc1cc(-c2ccc(OC(F)F)cc2C(=O)N2CC(F)C2)cc(NC(=O)c2cc(CN[C@@H](C)C3CCC3)cn(C)c2=O)n1` [Example 250]: under 0.1 µM; for `CC(C)CNCc1cc(C(=O)Nc2cc(-c3ccc(Cl)cc3C(=O)N3CC(F)C3)cc(OC(C)C)n2)c(=O)n(C2CC2)c1` [Example 251]: under 0.1 µM.

What is called IC50 is the point on the concentration scale where inhibition reaches its midpoint. A high value points to a need for much substance.
